Reference: US20250152604A1, “CONTRACEPTIVE METHODS WITH SCHEDULED BLEEDING EFFECTS” (ESTETRA SRL, priority 2022, published 2025)

Test: Solubility description
Format: physicochemical
Conditions: for solubility in water: water (and aqueous solutions)

Row | Structure (SMILES) | solubility in acetone (acetone) | solubility in acetonitrile (acetonitrile) | solubility in ethanol (ethanol) | solubility in ethyl acetate (ethyl acetate) | solubility in methanol (methanol) | solubility in water
1 | C[C@]12CC[C@@H]3c4ccc(O)cc4CC[C@H]3[C@@H]1[C@@H](O)[C@@H](O)C2O (stereo in doubt) [Estetrol monohydrate, estra-1,3,5 (10)-triene-3,15α, 16α, 17α-tetrol monohydrate] | sparingly soluble | slightly soluble | soluble | slightly soluble | soluble | poorly soluble
2 | C[C@]12CCC(=O)C=C1[C@@H]1C[C@@H]1[C@H]1[C@@H]3[C@@H]4C[C@@H]4[C@@]4(CCC(=O)O4)[C@@]3(C)CC[C@@H]12 [Drospirenone, reference compound] |  |  |  |  |  | slight solubility
